Source: patent US10940188B2, “Compounds and methods for treatment and prevention of Flavivirus infection” (priority 2016, dated 2021)
Counter-ions that a name gives are not always drawn. Like-named read-outs stand apart in the source and are kept apart here.

Assays:
ZIKV MR766 NS1 = assay: microbe, parasite or virus in culture; format: cell-based, Zika virus; conditions: Zika virus, HEK293, 48 h, read-out: NS1-IC50
Experimental: A one-step NS1 TR-FRET (Time-resolved fluorescence resonance energy transfer) assay for a screen of anti-ZIKV compounds was carried out. Human embryonic kidney cell line HEK293 cells were seeded into 384-well plates and infected with ZIKV MR766 at a MOI of 0.5 for 2 days. The FRET assay was performed with two clones of anti-NS1 antibody (ab) differentially labelled with donor and acceptor fluorophores.

[1] = system: ZIKV-induced cell death in SNB-19 cells; assay: ATP cell viability assay for ZIKV-induced cell death, SNB-19 cells; format: cell-based, human; conditions: for IC50: read-out: Cell viability (IC50, uM) SNB-19
Experimental: (§1) The reagent was reconstituted and prepared as described by the manufacturer. In order to measure the cell death caused by ZIKV infection, cells were cultured for 16 hours at 37° C. with 5% CO2 in assay plates, followed by the addition of ZIKV solution and incubation at 37° C. with 5% CO2 for 72 hours. ATPlite, the ATP monitoring reagent, was then added to the assay plates and they were incubated for 15 minutes. The resulting luminescence was measured using the ViewLux plate reader (Perkin Elmer). Data were normalized using the wells without cells as a control for 100% cell killing, and cell-containing wells without ZIKV infection were used as full cell viability (0% cell killing). […]
as §1, with “The ATPlite luminescence assay system assay kit (PerkinElmer) was used to determine cell viability. The reagent” for “The reagent”, “by the manufacture. In order” for “by the manufacturer. In order”, “followed by addition of” for “followed by the addition of”, “plates and incubated for” for “plates and they were incubated for”, “Elmer). Data was normalized using” for “Elmer). Data were normalized using”

[2] = system: ZIKV-induced caspase 3/7 activity in human astrocytes; assay: Caspase 3/7 activity assay, ZIKV-infected human astrocytes; format: cell-based; conditions: ZIKV-infected human astrocytes; for IC50: read-out: Caspase 3 (IC50, uM) Astrocyte; for Emax: read-out: Caspase 3 (efficacy, %) Astrocyte
Experimental: (§2) Caspase-Glo 3/7 assay kit (catalog number G8092; Promega, Madison, Wis.) was used to detect caspase 3/7 activity. Reagents were reconstituted as described in the protocol from the manufacturer. Polystyrene plates (384-well and 1536-well; regular tissue culture treated and PDL coated) were purchased from Greiner Bio-One (Monroe, N.C.). Cells were seeded in 384- and 1536-well assay plates and cultured at 37° C. with 5% CO2 for 16 hours. ZIKV solution was added to cells, followed by incubation at 37° C. with 5% CO2 for 6 hours. Caspase-Glo 3/7 was added to each well, unless otherwise specified, and incubated at room temperature for 30 minutes. The luminescence intensity of the assay plates was measured using a ViewLux plate reader (PerkinElmer). Data were normalized by using the cell-containing wells without ZIKV as a negative control (0% induction of caspase 3/7 activity) and wells containing ZIKV infected cells that induced caspase 3/7 activity were used as a positive control (100% induction of caspase 3/7 activity). […]
(§3) Caspase-Glo 3/7 assay kit (Promega) was used to detect caspase 3/7 activity. Reagents were reconstituted as described in the protocol from the manufacturer. Cells were seeded in 384- and 1536-well assay plates and cultured at 37° C. with 5% CO2 for 16 hours. ZIKV solution was added to cells, followed by incubation at 37° C. with 5% CO2 for 6 hours. Caspase-Glo 3/7 was added to each well at a 1:1 ratio, unless otherwise specified, and incubated at room temperature for 30 minutes. The luminescence intensity of the assay plates was measured using a ViewLux plate reader (PerkinElmer). Data was normalized by using the cell-containing wells without ZIKV as a negative (0% induction of caspase 3/7 activity) control and wells containing ZIKV infected cells that induced caspase 3/7 activity were used as a positive control (100% induction of caspase 3/7 activity). […]

[3] = system: ZIKV-induced caspase 3/7 activity in hNPCs; assay: Caspase 3/7 activity assay, ZIKV-infected hNPCs; format: cell-based; conditions: ZIKV-infected hNPCs; for IC50: read-out: Caspase 3 (IC50, uM) NPCs; for Emax: read-out: Caspase 3 (efficacy, %) NPCs
Experimental: Caspase-Glo 3/7 assay kit (catalog number G8092; Promega, Madison, Wis.) was used to detect caspase 3/7 activity. Reagents were reconstituted as described in the protocol from the manufacturer. Polystyrene plates (384-well and 1536-well; regular tissue culture treated and PDL coated) were purchased from Greiner Bio-One (Monroe, N.C.). Cells were seeded in 384- and 1536-well assay plates and cultured at 37° C. with 5% CO2 for 16 hours. ZIKV solution was added to cells, followed by incubation at 37° C. with 5% CO2 for 6 hours. Caspase-Glo 3/7 was added to each well, unless otherwise specified, and incubated at room temperature for 30 minutes. The luminescence intensity of the assay plates was measured using a ViewLux plate reader (PerkinElmer). Data were normalized by using the cell-containing wells without ZIKV as a negative control (0% induction of caspase 3/7 activity) and wells containing ZIKV infected cells that induced caspase 3/7 activity were used as a positive control (100% induction of caspase 3/7 activity).
Human NPCs were seeded onto PDL coated 1536-well assay plates at 250 cells per 3 μl/well and incubated at 37° C. in 5% CO2 for 16 hours. Test compounds dissolved in DMSO were transferred to assay plates at a volume of 23 nl/well by an automated pintool workstation (Wako Automation, San Diego, Calif.). Compounds were incubated with cells for 30 minutes at 37° C. in 5% CO2, immediately followed by the addition of 2 μl/well of ZIKV. Incubation time of compound-treated cells with ZIKV varied based on assay format. Experiments measuring virus-induced caspase 3/7 activity required a 6 hour incubation of ZIKV in the presence compounds at 37° C. in 5% CO2. Following this incubation, 3.5 μl/well of caspase 3/7 reagent mixture was added to assay plates. The plates were incubated for 30 minutes at room temperature, and the resultant luminescence signal was measured using a ViewLux plate reader (Perkin Elmer). Experiments measuring virus-induced cell death required a 72-hour incubation of ZIKV in the presence of compounds at 37° C. in 5% CO2. Following this incubation, 3.5 μl/well of ATP content detection reagent was added to assay plates, incubated for 30 minutes at the room temperature, and the resultant luminescence signal was measured in a ViewLux plate reader.
Caspase-Glo 3/7 assay kit (Promega) was used to detect caspase 3/7 activity. Reagents were reconstituted as described in the protocol from the manufacturer. Cells were seeded in 384- and 1536-well assay plates and cultured at 37° C. with 5% CO2 for 16 hours. ZIKV solution was added to cells, followed by incubation at 37° C. with 5% CO2 for 6 hours. Caspase-Glo 3/7 was added to each well at a 1:1 ratio, unless otherwise specified, and incubated at room temperature for 30 minutes. The luminescence intensity of the assay plates was measured using a ViewLux plate reader (PerkinElmer). Data was normalized by using the cell-containing wells without ZIKV as a negative (0% induction of caspase 3/7 activity) control and wells containing ZIKV infected cells that induced caspase 3/7 activity were used as a positive control (100% induction of caspase 3/7 activity).
Human NPCs were seeded onto PDL coated 1536-well assay plates at 250 cells per 3 μl/well and incubated at 37° C. in 5% CO2 for 16 hours. Test compounds dissolved in DMSO were transferred to assay plates at a volume of 23 nl/well by an automated pintool workstation (Wako Automation, San Diego, Calif.). Compounds were incubated with cells for 30 minutes at 37° C. in 5% CO2, immediately followed by the addition of 2 μl/well of ZIKV. Incubation time of compound-treated cells with ZIKV varied based on assay format. Experiments measuring virus induced caspase 3/7 activity required a 6 hour incubation of ZIKV in the presence compounds at 37° C. in 5% CO2. […]

[4] = system: ZIKV-induced caspase 3/7 activity in SNB-19 cells; assay: Caspase 3/7 activity assay, ZIKV-infected SNB-19 cells; format: cell-based; conditions: ZIKV-infected SNB-19 cells; for IC50: read-out: Caspase 3 (IC50, uM) SNB-19; for Emax: read-out: Caspase 3 (efficacy, %) SNB-19
Experimental: as §2, §3

[5] = system: ZIKV-induced cell death in human astrocytes; assay: ATP cell viability assay for ZIKV-induced cell death, human astrocytes; format: cell-based; conditions: for IC50: read-out: Cell viability (IC50, uM) Astrocyte

Row | IC50 ([2]; Astrocyte) | IC50 ([3]; Homo sapiens) | IC50 ([4]; Homo sapiens) | Compound | IC50 (ZIKV MR766 NS1) | Cell viability (efficacy, %) SNB-19 ([1]; ZIKV-infected SNB-19 cells) | IC50 ([1]; ZIKV-infected SNB-19 cells) | Caspase 3 (efficacy, %) Astrocyte [2] | IC50 [2] | Caspase 3 (efficacy, %) NPCs [3] | IC50 [3] | Caspase 3 (efficacy, %) SNB-19 [4] | IC50 [4] | Cell viability (efficacy, %) Astrocyte ([5]; ZIKV-infected human astrocytes) | IC50 ([5]; ZIKV-infected human astrocytes) | Emax ([2]; Astrocyte) | Emax ([3]; Homo sapiens) | Emax ([4]; Homo sapiens) | Cell viability (efficacy, %) SNB-19 [1] | Cell viability (efficacy, %) Astrocyte [5]
1 |  |  |  | COc1cccc2c1C(=O)c1c(O)c3c(c(O)c1C2=O)C[C@@](O)(C(=O)CO)C[C@@H]3O[C@H]1C[C@H](N)[C@@H](O)[C@H](C)O1 [Epirubicin hydrochloride] | 0.492 µM |  |  |  |  |  |  |  |  |  |  |  |  |  |  | 
2 |  |  |  | C=CC[C@@H]1/C=C(\C)C[C@H](C)C[C@H](OC)[C@H]2O[C@@](O)(C(=O)C(=O)N3CCCC[C@H]3C(=O)O[C@H](/C(C)=C/[C@@H]3CC[C@@H](O)[C@H](OC)C3)[C@H](C)[C@@H](O)CC1=O)[C@H](C)C[C@@H]2OC [FK-506] | 0.104 µM |  |  |  |  |  |  |  |  |  |  |  |  |  |  | 
3 |  |  |  | CC(C)(C)COc1ccc(-n2cc(C(=O)O)cn2)cc1C#N [Piraxostat] |  | 60.3% | 5.01 µM | 70.5% | 8.91 µM | 67.1% | 15.8 µM | 63.5% | 21.1 µM | 34.7% | 63.1 µM |  |  |  |  | 
4 |  |  |  | OCc1ccc(-c2ccc(-c3ccc(CO)s3)o2)s1 [RITA] |  | 0.0% |  | 41.2% | 27.5 µM | 50.9% | 14.6 µM | 101% | 0.22 µM | 81.7% | 5.81 µM |  |  |  |  | 
5 |  |  |  | COc1cccc(NC(=O)/C=C/c2ccc(Cl)cc2)c1 [SB-366791] |  | 0.0% |  | 93.9% | 4.11 µM | 89.9% | 2.91 µM | 93.3% | 3.66 µM | 0.0% |  |  |  |  |  | 
6 | 2.06 µM | 1.3 µM | 1.95 µM | O=C(Nc1ncc([N+](=O)[O-])s1)c1cccs1 [Tenonitrozole] |  | 0.0% |  |  |  |  |  |  |  | 0.0% |  | 88.8% | 81.5% | 81.7% |  | 
7 | 1.3 µM | 0.92 µM | 1.03 µM | C/C(O)=C(\C#N)C(=O)Nc1ccc(C(F)(F)F)cc1 [Teriflunomide] |  | 0.0% |  |  |  |  |  |  |  | 0.0% |  | 86.9% | 94.5% | 93.1% |  | 
8 | 17.3 µM | 19.5 µM | 17.3 µM | COc1ccc(/C=C/C(=O)Nc2ccccc2C(=O)O)cc1OC [Tranilast] |  | 0.0% |  |  |  |  |  |  |  | 0.0% |  | 71.6% | 107% | 70.3% |  | 
9 |  |  |  | N#C/C(=C\c1ccc(O)c(O)c1)C(=O)Nc1ccccc1 [Tyrphostin AG 494] |  | 45.6% | 30.8 µM | 72.5% | 18.4 µM | 72.8% | 17.3 µM | 55.6% | 21.8 µM | 0.0% |  |  |  |  |  | 
10 | 9.2 µM | 9.75 µM | 13.8 µM | O=C(O)[C@@H](c1ccc(OCc2ccc3ccccc3n2)cc1)C1CCCC1 [Veliflapon] |  | 0.0% |  |  |  |  |  |  |  | 0.0% |  | 65.9% | 74.3% | 70% |  | 
11 |  |  |  | Malachite green oxalate |  |  |  | 54.0% | 17.3 µM | 62.7% | 21.8 µM | 0.0% |  |  |  |  |  |  | 0.0% | 0.0%

Row | Compound | IC50 ([2]; Astrocyte) | IC50 ([3]; Homo sapiens) | IC50 ([4]; Homo sapiens) | IC50 (ZIKV MR766 NS1) | Cell viability (efficacy, %) SNB-19 ([1]; ZIKV-infected SNB-19 cells) | IC50 ([1]; ZIKV-infected SNB-19 cells) | Caspase 3 (efficacy, %) Astrocyte [2] | IC50 [2] | Caspase 3 (efficacy, %) NPCs [3] | IC50 [3] | Caspase 3 (efficacy, %) SNB-19 [4] | IC50 [4] | Cell viability (efficacy, %) Astrocyte ([5]; ZIKV-infected human astrocytes) | IC50 ([5]; ZIKV-infected human astrocytes) | Emax ([2]; Astrocyte) | Emax ([3]; Homo sapiens) | Emax ([4]; Homo sapiens) | Cell viability (efficacy, %) SNB-19 [1] | Cell viability (efficacy, %) Astrocyte [5]
12 | O=c1c2ccccc2nc2n1CCc1c-2[nH]c2ccccc12 [Rutaecarpine] | 4.89 µM | 4.61 µM | 5.18 µM |  | 0.0% |  |  |  |  |  |  |  | 0.0% |  | 89.5% | 87.5% | 86.4% |  | 
13 | O=C(Nc1ccc(Br)cc1)c1cc(Br)cc(Br)c1O [Tribromsalan] | 6.9 µM | 13.8 µM | 7.74 µM |  |  |  |  |  |  |  |  |  |  |  | 102% | 108% | 107% | 0.0% | 0.0%
